From patent publication US9415055B2, “Cyclic amines” (H. Lundbeck A/S, priority 2012, dated 2016)

Biological target: P2X7 receptor (Homo sapiens (Human), UniProt Q99572)
Assay: P2X7 FLIPR assay: antagonism of BzATP response in 293 HEK cells stably expressing P2X7 receptor
Type: cell-based
Details: FLIPR fluorescence (Fluo-4), agonist BzATP, 293 HEK cells stably transfected with P2X7 receptor
Method: Cells were plated to cell density of approximately 15,000 cells/well in 384-well assay plates (50 μl/well) with 1.5% low serum media (DMEM, 1.5% BCS, 1% L-glut (2 mM), 1% P/S).
Cells were plated to cell density of approximately 15,000 cells/well in 384-well assay plates (50 μl/well) with 1.5% low serum media (DMEM, 1.5% FBS, 1% L-glut (2 mM), 10 mM HEPES, 1% P/S). Cells were plated 24 hours prior to assay. Cells expressing human, rat or mouse P2X7 receptor were assayed in the following manner.
Fluo-4 NW dye mix (Molecular Probes, Inc., Eugene, Oreg., USA) was prepared in buffer (see manufacturer's instructions). Cell plates were removed from the 37° C. incubator, the media discarded and then 30 μL of dye was added to each well. Plates were placed in the 37° C., non-CO2 incubator for 30 minutes and then room temperature for 30 minutes.
Compound mixtures (A) were added to assay plates containing cells and placed at room temperature for 30 minutes, then BzATP (B) was added. Fluorescence was read using the Tetra FLIPR® (Molecular Devices, Inc., Sunnyvale, Calif., USA) and IC50 values were calculated by standard methods to determine antagonist activity.

Chain of P2X7 receptor (Q99572 whole entry): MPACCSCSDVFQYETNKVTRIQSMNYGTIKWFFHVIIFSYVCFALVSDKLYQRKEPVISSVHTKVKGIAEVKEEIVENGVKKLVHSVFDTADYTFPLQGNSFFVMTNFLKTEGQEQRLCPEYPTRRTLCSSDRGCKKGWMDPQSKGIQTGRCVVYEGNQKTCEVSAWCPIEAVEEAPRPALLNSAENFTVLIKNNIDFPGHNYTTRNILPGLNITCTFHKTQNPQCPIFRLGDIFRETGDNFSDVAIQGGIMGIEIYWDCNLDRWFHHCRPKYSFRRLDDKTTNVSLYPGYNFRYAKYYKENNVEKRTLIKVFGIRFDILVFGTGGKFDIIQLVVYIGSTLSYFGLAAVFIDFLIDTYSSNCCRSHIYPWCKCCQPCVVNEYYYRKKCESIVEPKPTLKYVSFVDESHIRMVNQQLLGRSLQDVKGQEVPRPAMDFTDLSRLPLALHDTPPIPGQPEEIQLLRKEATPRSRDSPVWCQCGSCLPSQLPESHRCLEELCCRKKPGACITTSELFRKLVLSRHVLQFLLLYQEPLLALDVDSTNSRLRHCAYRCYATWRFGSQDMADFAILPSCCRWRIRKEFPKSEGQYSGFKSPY

SMILES | IC50 [nM]
Cc1ncc(C(CNC(=O)c2cccc(Cl)c2Cl)N2CCCC(F)(F)C2)cn1 (single isomer, unassigned; (+)) [(+2,3-dichloro-N-(2-(3,3-difluoropiperidin-1-yl)-2-(2-methylpyrimidin-5-yl)ethyl)benzamide] | 14
Cc1ccc(C(CNC(=O)c2cccc(Cl)c2Cl)N2CCOCC2)cn1 (single isomer, unassigned; (+)) [(+)2,3-Dichloro-N-[2-(6-methyl-3-pyridyl)-2-morpholino-ethyl]benzamide] | 44
Cc1ncc(C(CNC(=O)c2cccc(Cl)c2Cl)N2CCCCC2)cn1 (single isomer, unassigned; (+)) [(+)2,3-dichloro-N-[2-(2-methylpyrimidin-5-yl)-2-(1-piperidyl] [(+2,3-dichloro-N-(2-(2-methylpyrimidin-5-yl)-2-(piperidin-1-yl)ethyl)benzamide] | 8.9
Cc1ncc(C(CNC(=O)c2cccc(Cl)c2Cl)N2CCOCC2)cn1 (single isomer, unassigned; (+)) [(+)2,3-dichloro-N-[2-(2-methylpyrimidin-5-yl)-2-morpholino-e] [(+)2,3-Dichloro-N-[2-(2-methylpyrimidin-5-yl)-2-morpholino-ethyl]benzamide] | 69
Cn1cc(C(CNC(=O)c2cc(F)cc(Cl)c2Cl)N2CCC(F)(F)CC2)cn1 (single isomer, unassigned; (+)) [(+)2,3-dichloro-N-[2-(4,4-difluoro-1-piperidyl)-2-(1-methylp] [(+)2,3-dichloro-5-fluoro-N-(2-(4,4-difluoropiperidin-1-yl)-2-(1-methyl-1H-pyrazol-4-yl)ethyl)benzamide] | 34
Cn1cc(C(CNC(=O)c2cccc(Cl)c2Cl)N2CCC(F)(F)CC2)cn1 (single isomer, unassigned; (+)) [(+)2,3-dichloro-N-[2-(4,4-difluoro-1-piperidyl)-2-(1-methylp] [(+)2,3-dichloro-N-(2-(4,4-difluoropiperidin-1-yl)-2-(1-methyl-1H-pyrazol-4-yl)ethyl)benzamide] | 12
Cc1ncc(C(CNC(=O)c2cc(F)cc(Cl)c2Cl)N2CCC(F)(F)CC2)cn1 (single isomer, unassigned; (+)) [(+)2,3-dichloro-N-[2-(4,4-difluoro-1-piperidyl)-2-(2-methylp] [(+)2,3-dichloro-5-fluoro-N-(2-(4,4-difluoropiperidin-1-yl)-2-(2-methylpyrimidin-5-yl)ethyl)benzamide] | 5.1
O=C(NCC(c1cnc(C(F)(F)F)nc1)N1CCC(F)(F)CC1)c1cc(F)cc(Cl)c1Cl (single isomer, unassigned; (+)) [(+)2,3-dichloro-N-[2-(4,4-difluoro-1-piperidyl)-2-[2-(triflu] [(+)2,3-dichloro-5-fluoro-N-(2-(4,4-difluoropiperidin-1-yl)-2-(2-(trifluoromethyl)pyrimidin-5-yl)ethyl)benzamide] | 4.9
Cc1ncc(C(CNC(=O)c2cccc(Cl)c2Cl)N2CCC(F)CC2)cn1 (single isomer, unassigned; (+)) [(+)2,3-dichloro-N-[2-(4-fluoro-1-piperidyl)-2-(2-methylpyrim] [(+2,3-dichloro-N-(2-(4-fluoropiperidin-1-yl)-2-(2-methylpyrimidin-5-yl)ethyl)benzamide] | 6.5
O=C(NCC(c1cnc(C(F)(F)F)nc1)N1CCOCC1)c1cccc(Cl)c1Cl (single isomer, unassigned; (+)) [(+)2,3-dichloro-N-[2-morpholino-2-[2-(trifluoromethyl)pyrimi] [(+)2,3-Dichloro-N-[2-morpholino-2-[2-(trifluoromethyl)pyrimidin-5-yl]ethyl]benzamide] | 4.8
O=C(NCC(c1ccc(C(F)(F)F)nc1)N1CCOCC1)c1cccc(Cl)c1Cl (single isomer, unassigned; (+)) [(+)2,3-dichloro-N-[2-morpholino-2-[6-(trifluoromethyl)-3-pyr] [(+)2,3-Dichloro-N-[2-morpholino-2-[6-(trifluoromethyl)-3-pyridyl]ethyl]benzamide] | 5.5
O=C(NCC(c1cnc(C(F)(F)F)nc1)N1CCC(F)(F)CC1)c1c(F)cc(Cl)cc1Cl (single isomer, unassigned; (+)) [(+)2,4-dichloro-N-[2-(4,4-difluoro-1-piperidyl)-2-[2-(triflu] [(+)2,4-dichloro-6-fluoro-N-(2-(4,4-difluoropiperidin-1-yl)-2-(2-(trifluoromethyl)pyrimidin-5-yl)ethyl)benzamide] | 4.7
O=C(NCC(c1cnc(C(F)(F)F)nc1)N1CCC(F)(F)CC1)c1ccc(Cl)cc1Cl (single isomer, unassigned; (+)) [(+)2,4-dichloro-N-[2-(4,4-difluoro-1-piperidyl)-2-[2-(triflu] [(+)2,4-dichloro-N-(2-(4,4-difluoropiperidin-1-yl)-2-(2-(trifluoromethyl)pyrimidin-5-yl)ethyl)benzamide] | 5.6

Molecules with a lower IC50, results first:

IC50 [nM] | SMILES
4.3 | O=C(NCC(c1cnc(C2CC2)nc1)N1CCC(F)(F)CC1)c1cccc(Cl)c1Cl (single isomer, unassigned; (+)) [(+)2,3-dichloro-N-[2-(2-cyclopropylpyrimidin-5-yl)-2-(4,4-di] [(+)2,3-dichloro-N-(2-(2-cyclopropylpyrimidin-5-yl)-2-(4,4-difluoropiperidin-1-yl)ethyl)benzamide]
3.9 | O=C(NCC(c1cnc(C(F)F)nc1)N1CCOCC1)c1cccc(Cl)c1Cl (single isomer, unassigned; (+)) [(+)2,3-dichloro-N-[2-[2-(difluoromethyl)pyrimidin-5-yl]-2-mo] [(+)2,3-dichloro-N-(2-(2-(difluoromethyl)pyrimidin-5-yl)-2-morpholinoethyl)benzamide]
3.5 | O=C(NCC(c1cnc(C(F)(F)F)nc1)N1CCC(F)CC1)c1cccc(Cl)c1Cl (single isomer, unassigned; (+)) [(+)2,3-dichloro-N-[2-(4-fluoro-1-piperidyl)-2-[2-(trifluorom] [(+)2,3-dichloro-N-(2-(4-fluoropiperidin-1-yl)-2-(2-(trifluoromethyl)pyrimidin-5-yl)ethyl)benzamide]
3.2 | Cc1ncc(C(CNC(=O)c2cccc(Cl)c2Cl)N2CCC(F)(F)CC2)cn1 (single isomer, unassigned; (+)) [(+)2,3-dichloro-N-[2-(4,4-difluoro-1-piperidyl)-2-(2-methylp] [(+)2,3-dichloro-N-(2-(4,4-difluoropiperidin-1-yl)-2-(2-methylpyrimidin-5-yl)ethyl)benzamide]
2.6 | CCc1ncc(C(CNC(=O)c2cccc(Cl)c2Cl)N2CCC(F)(F)CC2)cn1 (single isomer, unassigned; (+)) [(+)2,3-dichloro-N-[2-(4,4-difluoro-1-piperidyl)-2-(2-ethylpy] [(+2,3-dichloro-N-(2-(4,4-difluoropiperidin-1-yl)-2-(2-ethylpyrimidin-5-yl)ethyl)benzamide]
2.4 | O=C(NCC(c1ccc(C(F)F)nc1)N1CCC(F)(F)CC1)c1cccc(Cl)c1Cl (single isomer, unassigned; (+)) [(+)2,3-dichloro-N-[2-[6-(difluoromethyl)-3-pyridyl]-2-(4,4-d] [(+)2,3-dichloro-N-(2-(2-(difluoromethyl)pyridin-5-yl)-2-(4,4-difluoropiperidin-1-yl)ethyl)benzamide]
